Test results taken from PMC4993599 (Bioorganic & medicinal chemistry letters, 2016).

Assays:
[1] = Lipophilicity by analytical reverse phase HPLC; assay type: physicochemical
[2] = biological target: TSPO (Rattus norvegicus, UniProt P16257); assay: C6 glioma cell lysate binding assay; conditions: for binding affinity (in words): TSPO

| SMILES | lipophilicity (in words) [1] | binding affinity (in words) [2] | other results |
| --- | --- | --- | --- |
| CCCCN(CCCC)C(=O)Cc1c(-c2ccc(OC)cc2)nn2c(CC)cc(CC)nc12 [Compound 12] | extremely lipophilic |  |  |
| CCN(CC)C(=O)Cc1c(-c2ccc(OC)cc2)nn2c(C)cc(C)nc12 [Compound 8, DPA-713, reference compound] |  |  | log P7.5 ([1]; reverse phase HPLC, averaged from triple runs): 2.40 |
| CCCCCCN(CCCCCC)C(=O)Cc1c(-c2ccc(OC)cc2)nn2c(CC)cc(CC)nc12 [Compound 14] | extremely lipophilic |  |  |
| CCc1cc(CC)n2nc(-c3ccc(OC)cc3)c(CC(=O)N(CC)C(C)(C)C)c2n1 [Compound 16] |  |  | decrease of affinity when substituting ethyl groups with t-butyls ([2]; compound 16 relative to compound 10): over 300 fold |
| CCCCCN(CCCCC)C(=O)Cc1c(-c2ccc(OC)cc2)nn2c(CC)cc(CC)nc12 [Compound 13] | extremely lipophilic |  |  |

The next lines start with results.

| lipophilicity (in words) [1] | binding affinity (in words) [2] | SMILES | other results |
| --- | --- | --- | --- |
|  | very poor binding affinity | CCc1cc(CC)n2nc(-c3ccc(OC)cc3)c(CC(=O)N3CCC3)c2n1 [Compound 23] |  |
|  | very poor binding affinity | CCc1cc(CC)n2nc(-c3ccc(OC)cc3)c(CC(=O)N3CCCC3)c2n1 [Compound 24] |  |
|  | very poor binding affinity | CCc1cc(CC)n2nc(-c3ccc(OC)cc3)c(CC(=O)N3CCCCC3)c2n1 [Compound 25] |  |
